# Assay results reported in US12612409B2, “Pyrrolopyrimidines as CFTR potentiators” (Cystic Fibrosis Foundation, priority 2016, dated 2026).
# Columns and labels:
# [1] = target: T1, recombinant F508del V470 CFTR in Fischer rat thyroid (FRT) cells (Homo sapiens, UniProt P13569, DEL508-508); assay: FRT ion flux assay of F508del CFTR potentiation; format: cell-based; conditions: FRT cells expressing F508del V470 CFTR, forskolin 20 uM, 27° C. pre-incubation
# T1 construct: expressed in transfected cells
# T1 sequence (P13569 with tags, fused parts or gaps DEL508-508): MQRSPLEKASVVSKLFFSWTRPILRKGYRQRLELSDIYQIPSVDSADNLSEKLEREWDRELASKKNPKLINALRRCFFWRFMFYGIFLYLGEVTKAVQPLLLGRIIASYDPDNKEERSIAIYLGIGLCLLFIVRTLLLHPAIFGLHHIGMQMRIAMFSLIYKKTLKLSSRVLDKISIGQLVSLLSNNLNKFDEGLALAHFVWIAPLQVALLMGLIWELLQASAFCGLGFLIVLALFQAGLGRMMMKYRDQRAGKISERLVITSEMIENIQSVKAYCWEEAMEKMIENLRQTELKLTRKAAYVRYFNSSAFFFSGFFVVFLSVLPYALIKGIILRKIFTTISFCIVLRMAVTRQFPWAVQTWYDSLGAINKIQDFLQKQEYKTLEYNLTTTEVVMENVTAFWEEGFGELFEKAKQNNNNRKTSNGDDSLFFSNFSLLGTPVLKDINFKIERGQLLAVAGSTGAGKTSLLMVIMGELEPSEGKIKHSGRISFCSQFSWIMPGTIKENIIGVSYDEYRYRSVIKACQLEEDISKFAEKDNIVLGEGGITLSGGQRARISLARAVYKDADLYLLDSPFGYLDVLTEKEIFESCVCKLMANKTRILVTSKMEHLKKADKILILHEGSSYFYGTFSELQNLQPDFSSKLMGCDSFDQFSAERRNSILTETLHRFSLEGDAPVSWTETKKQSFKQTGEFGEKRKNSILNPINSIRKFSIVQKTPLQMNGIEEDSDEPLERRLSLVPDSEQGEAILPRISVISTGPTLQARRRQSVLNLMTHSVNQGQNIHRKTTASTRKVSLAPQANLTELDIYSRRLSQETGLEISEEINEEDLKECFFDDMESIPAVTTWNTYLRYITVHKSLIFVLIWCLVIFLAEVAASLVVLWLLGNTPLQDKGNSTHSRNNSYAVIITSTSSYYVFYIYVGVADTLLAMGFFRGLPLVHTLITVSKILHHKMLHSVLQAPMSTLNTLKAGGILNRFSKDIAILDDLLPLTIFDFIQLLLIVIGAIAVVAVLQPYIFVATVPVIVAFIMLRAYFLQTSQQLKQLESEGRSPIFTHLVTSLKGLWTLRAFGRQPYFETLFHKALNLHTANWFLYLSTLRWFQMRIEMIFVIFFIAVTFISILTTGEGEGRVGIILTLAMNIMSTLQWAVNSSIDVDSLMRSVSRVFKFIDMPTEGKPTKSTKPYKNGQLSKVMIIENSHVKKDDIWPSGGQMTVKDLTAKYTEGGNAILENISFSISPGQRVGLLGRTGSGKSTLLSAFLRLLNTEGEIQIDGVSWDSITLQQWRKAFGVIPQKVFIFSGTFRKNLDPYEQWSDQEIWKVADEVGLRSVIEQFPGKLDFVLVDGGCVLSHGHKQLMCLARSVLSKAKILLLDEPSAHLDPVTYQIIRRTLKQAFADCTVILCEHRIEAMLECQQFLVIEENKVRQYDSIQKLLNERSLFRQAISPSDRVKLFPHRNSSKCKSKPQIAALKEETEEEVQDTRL
# Experimental: FRT Ion Flux Assay of F508del CFTR Potentiation
# Fischer rat thyroid (FRT) cell lines stably expressing recombinant F508del V470 CFTR and halide-sensitive yellow fluorescent protein (Pedemonte et al., J. Clin. Invest. 115(9) 2564-71 (2005)) were seeded at 25,000 cells/well in 50 uL/well of culture medium into black-walled, clear bottom tissue-culture-treated 384-well plates (Corning, cat. no. 3712). After one day, the cells were pre-incubated at 27° C./5% CO2 for 16-24 hours. The cells were then washed with dPBS and treated with forskolin (20 uM) and test compound for 30 mi by addition of 20 uL of compound dilution buffer (dPBS containing forskolin and test compound). Plates were loaded into FLIPR384 fluorescence imaging plate reader (Molecular Devices). After an initial fluorescence reading, iodide buffer (25 uL) (composition (in mM): 137 NaI, 1.5 K2PO4, 8.1 NaH2PO4, 2.7 KCl, 0.5 MgCl2, 1 CaCl2) was added and a second fluorescence reading was made after approximately 21 seconds. Data treatment involved division of the second fluorescence reading by the initial fluorescence reading, then scaling of the resulting normalized endpoint fluorescence with respect to the responses for DMSO (0%) and a positive control potentiator (100%).
# [2] = target: T2, CFTR in F508del/F508del primary CF hBE cells (Homo sapiens, UniProt P13569, DEL508-508); assay: Ussing chamber electrophysiology assay of CFTR potentiation in F508del/F508del CF bronchial epithelial cells (27° C.); format: cell-based
# T2 construct: Primary cystic fibrosis human bronchial epithelial (CF hBE) cells were expanded and cultured; endogenous in cells; host or cells: primary CF human bronchial epithelial cells, genotype F508del/F508del
# T2 sequence (P13569 with tags, fused parts or gaps DEL508-508): as above
# Text: • SHELXTL, Version 5.1, Bruker AXS, 1997. • PLATON, A. L. Spek, J. Appl. Cryst. 2003, 36, 7-13. • MERCURY, C. F. Macrae, P. R. Edington, P. McCabe, E. Pidcock, G. P. Shields, R. Taylor, M. Towler and J. van de Streek, J. Appl. Cryst. 39, 453-457, 2006. • OLEX2, Dolomanov, O. V.; Bourhis, L. J.; Gildea, R. J.; Howard, J. A. K.; Puschmann, H., (2009). J. Appl. Cryst., 42, 339-341. • R. W. W. Hooft et al. J. Appl. Cryst. (2008). 41. 96-103. • H. D. Flack, Acta Cryst. 1983, A39, 867-881. Using Chamber Electrophysiology Assay of CFTR Potentiation in CF Bronchial Epithelial Cells
# Primary cystic fibrosis human bronchial epithelial (CF hBE) cells were expanded and cultured according to published methods (Neuberger et al., Ch. 4 of Cystic Fibrosis, Methods in Molecular Biology vol. 741, pp. 39-54 (2011)). Well-differentiated cells (>30 days at air/liquid interface) on Snapwell filters (Corning Costar, cat. no. 3801) were mounted in Ussing chambers (Physiologic Instruments, Inc., San Diego, CA). […] HEPES buffered physiological saline (composition (in mM): 137 NaCl, 4 KCl, 1 MgCl2, 1.8 CaCl2), 10 HEPES Na) was used in both apical and basolateral chambers. Chambers were bubbled with air to promote mixing and the voltage was clamped to zero. Amiloride (30 uM), forskolin (10 uM), test compound (4 increasing concentrations), and CFTRinh-172 (20 uM) were added sequentially with 20-25 minutes between additions. Short-circuit currents were acquired and analyzed using LabScribe2. Test compound responses were scaled relative to responses for DMSO (0%) and the maximal response of a positive control potentiator (100%).
EC50 [1] [µM],EC50 [2] [µM],SMILES
0.0373,0.0932,"CCC(c1cn(-c2ccccc2F)nn1)n1cc(-c2cnco2)c2c(N)ncnc21 (stereo not drawn) [Example 225, 7-{1-[1-(2-Fluorophenyl)-1H-1,2,3-triazol-4-yl]propyl}-5-(1,3-oxazol-5-yl)-7H-pyrrolo[2,3-d]pyrimidin-4-amine]"
0.185,0.389,"Nc1ncnc2c1c(C1CC1)cn2C1(c2cn(-c3ccccc3F)nn2)CC1 [Example 295, 5-Cyclopropyl-7-{1-[1-(2-fluorophenyl)-1H-1,2,3-triazol-4-yl]cyclopropyl}-7H-pyrrolo[2,3-d]pyrimidin-4-amine]"
0.05,0.0359,"CC(c1cn(-c2ccccc2F)nn1)n1cc(-c2cc(F)cc(Cl)c2)c2c(N)ncnc21 (stereo not drawn) [Example 99, 5-(3-Chloro-5-fluorophenyl)-7-{1-[1-(2-fluorophenyl)-1H-1,2,3-triazol-4-yl]ethyl}-7H-pyrrolo[2,3-d]pyrimidin-4-amine]"
0.00846,0.0107,"CCC(c1cn(-c2ccccc2)nn1)n1cc(-c2cnc(C(F)(F)F)nc2)c2c(N)ncnc21 (single isomer, unassigned; enantiomer 1) [Example 129, 7-[1-(1-Phenyl-1H-1,2,3-triazol-4-yl)propyl]-5-[2-(trifluoromethyl)pyrimidin-5-yl]-7H-pyrrolo[2,3-d]pyrimidin-4-amine, enantiomer 1]"
0.112,0.0195,"CCC(c1cn(-c2ccc(F)c(F)c2)nn1)n1cc(-c2cnc(OC)c(F)c2)c2c(N)ncnc21 (single isomer, unassigned; enantiomer 2) [Example 158, 7-{1-[1-(3,4-Difluorophenyl)-1H-1,2,3-triazol-4-yl]propyl}-5-(5-fluoro-6-methoxypyridin-3-yl)-7H-pyrrolo[2,3-d]pyrimidin-4-amine, enantiomer 2]"
–,0.551,"Nc1ncnc2c1c(-c1ccc(Cl)cc1)cn2Cc1nnc(-c2ccccc2)[nH]1 [Example 284, 5-(4-Chlorophenyl)-7-[(5-phenyl-4H-1,2,4-triazol-3-yl)methyl]-7H-pyrrolo[2,3-d]pyrimidin-4-amine]"
1.05,–,"CC(c1cn(-c2ccccc2F)nn1)n1cc(-c2cc[nH]n2)c2c(N)ncnc21 (single isomer, unassigned; enantiomer 2) [Example 122, 7-{1-[1-(2-Fluorophenyl)-1H-1,2,3-triazol-4-yl]ethyl}-5-(1H-pyrazol-3-yl)-7H-pyrrolo[2,3-d]pyrimidin-4-amine, enantiomer 2]"
2.42,–,"CC(c1cn(-c2ccccc2F)nn1)n1cc(-c2cccc3c2cnn3C)c2c(N)ncnc21 (stereo not drawn) [Example 92, 7-{1-[1-(2-Fluorophenyl)-1H-1,2,3-triazol-4-yl]ethyl}-5-(1-methyl-1H-indazol-4-yl)-7H-pyrrolo[2,3-d]pyrimidin-4-amine]"
1.3,–,"CCC(c1cn(-c2ccc(OC)nc2)nn1)n1cc(-c2cnc(C(F)(F)F)nc2)c2c(N)ncnc21 (single isomer, unassigned; enantiomer 2) [Example 310, 7-{1-[1-(6-Methoxypyridin-3-yl)-1H-1,2,3-triazol-4-yl]propyl}-5-[2-(trifluoromethyl)pyrimidin-5-yl]-7H-pyrrolo[2,3-d]pyrimidin-4-amine, enantiomer 2]"
3.78,–,"Nc1ncnc2c1c(-c1cnc3[nH]ccc3c1)cn2Cc1cn(-c2ccccc2F)nn1 [Example 80, 7-{[1-(2-Fluorophenyl)-1H-1,2,3-triazol-4-yl]methyl}-5-(7H-pyrrolo[2,3-b]pyridin-5-yl)-7H-pyrrolo[2,3-d]pyrimidin-4-amine]"
0.457,–,"CCC(c1nnn(-c2ccc(F)cc2F)c1C)n1cc(-c2cnc(C(F)(F)F)nc2)c2c(N)ncnc21 (single isomer, unassigned) [Example 190]"
1.92,–,"Cc1c(C(C)n2cc(-c3cnc(C(F)(F)F)nc3)c3c(N)ncnc32)nnn1-c1ccccc1F (single isomer, unassigned; enantiomer 2) [Example 180, 7-{1-[1-(2-Fluorophenyl)-5-methyl-1H-1,2,3-triazol-4-yl]ethyl}-5-[2-(trifluoromethyl)pyrimidin-5-yl]-7H-pyrrolo[2,3-d]pyrimidin-4-amine, enantiomer 2]"
5.15,–,"CC(c1cc(-c2ccccc2F)no1)n1cc(-c2ccnc3[nH]ccc23)c2c(N)ncnc21 (stereo not drawn) [Example 103, 7-{1-[3-(2-Fluorophenyl)-1,2-oxazol-5-yl]ethyl}-5-(1H-pyrrolo[2,3-b]pyridin-4-yl)-7H-pyrrolo[2,3-d]pyrimidin-4-amine]"
1.24,–,"CC(c1cn(-c2ccc(F)cc2F)nn1)n1cc(-c2cnc(C(F)(F)F)nc2)c2c(N)ncnc21 (single isomer, unassigned; enantiomer 2) [Example 124, 7-{1-[1-(2,4-Difluorophenyl)-1H-1,2,3-triazol-4-yl]ethyl}-5-[2-(trifluoromethyl)pyrimidin-5-yl]-7H-pyrrolo[2,3-d]pyrimidin-4-amine, enantiomer 2]"
0.322,–,"CC(c1cc(-c2ccccc2F)no1)n1cc(-c2ccc3c(c2)OCCO3)c2c(N)ncnc21 (stereo not drawn) [Example 102, 5-(2,3-Dihydro-1,4-benzodioxin-6-yl)-7-{1-[3-(2-fluorophenyl)-1,2-oxazol-5-yl]ethyl}-7H-pyrrolo[2,3-d]pyrimidin-4-amine]"
0.17,–,"Nc1ncnc2c1c(-c1ccc(Cl)cc1)cn2Cc1cn(C2CCCC2)nn1 [Example 281, 5-(4-Chlorophenyl)-7-[(1-cyclopentyl-1H-1,2,3-triazol-4-yl)methyl]-7H-pyrrolo[2,3-d]pyrimidin-4-amine]"
3.21,–,"Nc1ncnc2c1c(C1CN(C(=O)C3CC3)C1)cn2Cc1cn(-c2ccccc2F)nn1 [Example 292, [3-(4-Amino-7-{[1-(2-fluorophenyl)-1H-1,2,3-triazol-4-yl]methyl}-7H-pyrrolo[2,3-d]pyrimidin-5-yl)azetidin-1-yl](cyclopropyl) methanone]"
0.85,–,"CCC(c1c[nH]c(-c2ccc(F)cc2F)n1)n1cc(-c2cnc(C(F)(F)F)nc2)c2c(N)ncnc21 (single isomer, unassigned; enantiomer 2) [Example 178, 7-{1-[2-(2,4-Difluorophenyl)-2H-imidazol-4-yl]propyl}-5-[2-(trifluoromethyl)pyrimidin-5-yl]-7H-pyrrolo[2,3-d]pyrimidin-4-amine, enantiomer 2]"
0.691,–,"COc1cc2c(cc1-c1cn(C(C)c3cn(-c4ccccc4F)nn3)c3ncnc(N)c13)CCCC2 (stereo not drawn) [Example 93, 7-{1-[1-(2-Fluorophenyl)-1H-1,2,3-triazol-4-yl]ethyl}-5-(3-methoxy-5,6,7,8-tetrahydronaphthalen-2-yl)-7H-pyrrolo[2,3-d]pyrimidin-4-amine]"
4.54,–,"Cc1ccc2cc(F)c(-c3cn(C(C)c4cnc(-c5ccccc5F)[nH]4)c4ncnc(N)c34)cc2n1 (stereo not drawn) [Example 63, 5-(6-Fluoro-2-methylquinolin-7-yl)-7-{1-[2-(2-fluorophenyl)-1H-imidazol-5-yl]ethyl}-7H-pyrrolo[2,3-d]pyrimidin-4-amine]"
2.2,–,"CC(c1cn(-c2ccccc2F)nn1)n1cc(C2COC2)c2c(N)ncnc21 (stereo not drawn) [Example 250, 7-{1-[1-(2-Fluorophenyl)-1H-1,2,3-triazol-4-yl]ethyl}-5-(oxetan-3-yl)-7H-pyrrolo[2,3-d] pyrimidin-4-amine]"
0.111,–,"CC(=O)c1ccc(-c2cn(C(C)c3cn(-c4ccccc4F)nn3)c3ncnc(N)c23)s1 (stereo not drawn) [Example 91, 1-[5-(4-Amino-7-{1-[1-(2-fluorophenyl)-1H-1,2,3-triazol-4-yl]ethyl}-7H-pyrrolo[2,3-d]pyrimidin-5-yl)thiophen-2-yl]ethanone]"
